Experiment in all cases: DTP human tumour cell line panel, 48 h
The test system of assay [1] is LOX IMVI melanoma.
The test system of assay [2] is OVCAR-3 ovarian.
Assay [3] concerns NCI-H23 lung.
Assay [4] concerns A498 renal.
Assay [5] relates to IGROV1 ovarian.
Assay [6] relates to RPMI-8226 leukemia.
For assay [7], the system named is NCI-H226 lung.
Assay [8] concerns SR leukemia.
In assay [9] the test system is SW-620 colon.
For assay [10], the system named is MDA-MB-435.

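Each compound was tested at five concentrations against cells in 96-well plates for 48 hours. Here, GI50 denotes the concentration required for 50% inhibition of growth. TGI: concentration producing complete growth inhibition.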

For orientation: TGI means the concentration giving total growth inhibition. High values mean less potent growth arrest, low ones more potent growth arrest. Turning to `Cc1nc(-n2nc(-c3ccccc3)cc2-c2ccccc2)sc1C(=O)/C=C/c1cccc([N+](=O)[O-])c1`, the TGI in [1] was 36.6 µM; in assay [2], 15.4 µM; in assay [3] it was 41.8 µM; in assay [4], 51.9 µM; in assay [5], 92.2 µM; in assay [6], 19.4 µM.

Turning to `C/C(=N\Nc1n[nH]c(=S)n1N)c1c(O)cc(C)oc1=O`, the TGI in [1], in assay [7], in [8], in assay [3], in [9] and in assay [4] was above 100 µM throughout.

For the molecule `COC(=O)C#CC(N)=O`, the TGI is above 50.4 µM in assay [1]; above 100 µM in [7]; 60.7 µM in assay [8]; above 100 µM in assay [2]; above 100 µM in [3]; above 54.8 µM in [9]. Moreover, the TGI in [4] and in [5] was above 100 µM each time.

As for `C=C1C(=O)OC2(C)CCC1CC1OC1(C)CCC=C(C)CCC2O` (centres undefined), the TGI in [1], in assay [7], in [10], in assay [2], in assay [3] and in assay [9] was above 100 µM throughout. For the same molecule, the TGI in [4], in assay [5] and in assay [6] was above 100 µM throughout.

For the molecule `O=C(N/C(=C\c1ccc(F)cc1)c1nc2ccccc2[nH]1)c1ccccc1`, the TGI in assay [1], in assay [7], in assay [2], in [3], in assay [9] and in assay [4] was above 100 µM throughout. For the same molecule, the total growth inhibition concentration (TGI) in assay [5] and in assay [6] was above 100 µM in each case.

As for `COC(=O)C(=O)C(C#N)c1c(Cl)cccc1Cl` (centres undefined), the TGI in assay [1], in assay [7], in assay [2], in assay [3], in assay [9] and in [4] was above 100 µM each time. Moreover, the TGI in assay [5] and in assay [6] was above 100 µM each time.

For orientation: GI50 means the concentration that inhibits growth by half. Take `C=C(CN1CCN(c2ccc(F)c(Cl)c2)CC1)c1ccc(C(=O)Nc2ccccc2N)cc1`: the GI50 in assay [1] is 3.47 µM; in [7], 9.12 µM; in assay [10], 3.2 µM; in assay [2], 6.18 µM; in [3], 5.27 µM; in assay [9], 5.37 µM. Also, the GI50 is 9.67 µM in assay [4], 1.88 µM in assay [5] and 1.46 µM in assay [6]. Also, the TGI in assay [1] was 12.5 µM; in [7] it was 55.3 µM; in assay [10], 12.6 µM; in assay [2], 58.9 µM; in assay [3], 29.7 µM; in assay [9] it was above 100 µM. For the same molecule, the TGI turned out to be 44.1 µM in assay [4], 7.86 µM in assay [5] and 5.1 µM in assay [6].

For the molecule `CC1(C2CCC3(C)C(C2)C3Sc2ccccc2)OCCO1` (centres undefined), the TGI in [1] is 49.6 µM; in assay [2], 30 µM; in assay [3] it was 66.3 µM; in assay [9], 50.1 µM; in assay [4], 36.4 µM; in assay [5], above 100 µM. This molecule returned a TGI in assay [6] of 32.7 µM.

Consider `COC(=N)CCCl`, for which the TGI in assay [7], in [8], in assay [2], in assay [3], in assay [9] and in assay [5] was above 100 µM in each case. In addition, the TGI in assay [6] is above 100 µM.

For the molecule `COc1cc([C@@H]2c3cc4c(cc3[C@@H](NCc3cccc(F)c3)C3COC(=O)[C@@H]32)OCO4)cc(OC)c1O` (some centres undefined), the TGI in [1] was determined as 16.3 µM; in assay [7] it was 6.55 µM; in assay [2] it was 30.5 µM; in assay [3], 7.89 µM; in assay [9] it was 22.5 µM; in assay [4], 13.1 µM. Further, the values for the TGI in [5] and in assay [6] were 17.5 µM and 19.2 µM, respectively.

Regarding `Cc1c(C2CCSc3ccccc3N2)sc2ccccc12` (centres undefined), the total growth inhibition concentration (TGI) in assay [1], in assay [7], in assay [10], in [2], in assay [3] and in assay [9] was above 100 µM in each case. Also, the TGI in assay [5] and in assay [6] was above 100 µM throughout.

Take `N/C(CC(=O)NOC(=O)c1ccccc1)=N/OC(=O)c1ccccc1`: the TGI is 38.5 µM in [1]; 92.5 µM in assay [7]; above 100 µM in assay [10]; above 100 µM in assay [2]; above 100 µM in assay [3]; above 100 µM in [9]. The TGI in [4] is above 100 µM; in [5], 31.7 µM; in assay [6] it was above 100 µM.

On to `Cc1cn2cc(-c3ccc4c(c3)CC(=O)N4)nc2s1`, for which the GI50 is 20.5 µM in assay [1]; above 100 µM in [7]; 91 µM in [10]; above 100 µM in assay [2]; above 100 µM in assay [3]; 34 µM in assay [9]. For the same molecule, the values for the GI50 in [4], in assay [5] and in [6] were above 100 µM, above 100 µM and 35.9 µM, respectively. Moreover, the TGI in assay [1], in assay [7], in assay [10], in assay [2], in [3] and in assay [9] was above 100 µM each time. In addition, the TGI in assay [4], in assay [5] and in assay [6] was above 100 µM throughout.

With `CCN1CCC(O)(/C=C/c2ccccc2)C(C(=O)/C=C/c2ccccc2)C1` (centres undefined), the TGI in assay [7] came out at 9.93 µM; in assay [2], 8.9 µM; in assay [3], 10.3 µM; in assay [9], 3.41 µM; in assay [4], 18.4 µM; in assay [5], 3.78 µM.

As for `COc1cc(CCc2ccncc2)cc(OC)c1OC`, the TGI in assay [1], in assay [7], in assay [2], in assay [3], in assay [9] and in [4] was above 100 µM each time. For the same molecule, the TGI in assay [5] and in assay [6] was above 100 µM throughout.

The values are drawn from PubChem BioAssay (NCI).
